Consider 14 compounds from patent US20130317029A1 (PORTOLA PHARMACEUTICALS, INC., priority 2010, published 2013).

Structures are written as SMILES.

Assay [1] has as its system lymphoma cell lines and primary human lymphoma samples. The settings on record: cited from earlier work.
For another assay, the system named is Src kinsase. The settings on record: cited from earlier work.
The test system of assay [2] is refractory NHL and chronic lymphocytic leukemia. The settings on record: cited from earlier work.
For a further assay, the system named is ITAM signaling. The settings on record: in response to various stimuli, including FcεR1 and BCR induced Syk activation; cited from earlier work.
For another assay, the system named is JAK kinases. The settings on record: cited from earlier work.
Assay [3] addresses T1, full length active recombinant SYK enzyme (Homo sapiens, UniProt P43405).
T1 construct: full length active recombinant SYK enzyme (Millipore, Calif.); purchased Millipore
Briefly: Inhibition of Syk tyrosine phosphorylation activity (LANCE TR-FRET kinase assay). The class given is biochemical. An outline of the steps: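 Full-length active recombinant SYK (1 nM) phosphorylated biotinylated SYK-specific peptide (550 nM) with 100 μM ATP in 50 mM Tris pH 7.5, 5 mM MgCl2, 1 mM DTT, 3% DMSO, 1 h at room temperature. EDTA quench with Eu-anti-phosphotyrosine and SA-APC, 1 h TR-FRET read; IC50 by non-linear regression.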
A general note: Time-resolved FRET reads energy transfer from a long-lived donor to a nearby acceptor.

For the compound `COc1cc(Nc2ncc(F)c(Nc3ccc4c(n3)NC(=O)C(C)(C)O4)n2)cc(OC)c1OC` [Example R406], the BCR signaling entry in assay [1] (lymphoma cell lines and primary human lymphoma samples) was “attenuates BCR signaling”. Further, the apoptosis entry in assay [1] (lymphoma cell lines) is on record as “resulting in apoptosis”. The “activity against Src kinase” value with Src kinsase was “not against”. The “phase II clinical trial outcome” value in assay [2] is given as “favorable results”. For the same compound, the “inhibition of ITAM signaling” value with ITAM signaling is on record as “inhibit ITAM signaling”. Further, the “activity against JAK kinases” value in the assay with JAK kinases is given as “active”. Broadly, the IC50 is the concentration at which inhibition is half-maximal. As to `CC[C@@H](Nc1nc(Nc2cccc(-n3nccn3)c2)c(C(N)=O)c(=O)[nH]1)C(N)=O` [Example 8, (R)-4-(3-(2H-1,2,3-triazol-2-yl)phenylamino)-2-(1-amino-1-oxobutan-2-ylamino)-6-oxo-1,6-dihydropyrimidine-5-carboxamide], the IC50 in assay [3] lay within 10 to 100 nM. On the same count and under the same terms, the same measure for `CC(C)C[C@@H](Nc1nc(Nc2ccc3c(c2)OCCO3)c(C(N)=O)c(=O)[nH]1)C(N)=O` [Example 78, (R)-2-(1-amino-4-methyl-1-oxopentan-2-ylamino)-4-(2,3-dihydrobenzo[b][1,4]dioxin-6-ylamino)-6-oxo-1,6-dihydropyrimidine-5-carboxamide]: 1 to 10 nM; for `CC(C)C[C@@H](Nc1nc(Nc2cnc3ccccc3c2)c(C(N)=O)c(=O)[nH]1)C(N)=O` [Example 108, (R)-2-(1-amino-4-methyl-1-oxopentan-2-ylamino)-6-oxo-4-(quinolin-3-ylamino)-1,6-dihydropyrimidine-5-carboxamide]: less than 1 nM.

On to `CC[C@@H](Nc1nc(Nc2cnc3ccccc3c2)c(C(N)=O)c(=O)[nH]1)C(N)=O` [Example 109, (R)-2-(1-amino-1-oxobutan-2-ylamino)-6-oxo-4-(quinolin-3-ylamino)-1,6-dihydropyrimidine-5-carboxamide], for which the IC50 in assay [3] is less than 1 nM.

Turning to `CNC(=O)[C@@H](CC(C)C)Nc1nc(Nc2ccc3[nH]ncc3c2)c(C(N)=O)c(=O)[nH]1` [Example 105, (R)-4-(1H-indazol-5-ylamino)-2-(4-methyl-1-(methylamino)-1-oxopentan-2-ylamino)-6-oxo-1,6-dihydropyrimidine-5-carboxamide], in assay [3], the IC50 was in the range of 100 to 1000 nM. Same read-out and setting: the same measure for `CC[C@@H](Nc1nc(Nc2cccc(-n3cccn3)c2)c(C(N)=O)c(=O)[nH]1)C(N)=O` [Example 34]: 1 to 10 nM; for `Cc1cccc(Nc2nc(NC[C@H](C)N)nc(OCCO)c2C(N)=O)c1` [Example 53, (S)-4-(m-toluidino)-2-(2-aminopropylamino)-6-(2-hydroxyethoxy)pyrimidine-5-carboxamide]: more than 1000 nM; for `CCOc1nc(N[C@@H](C(N)=O)C(C)C)nc(Nc2cc(C)cc(C)c2)c1C(N)=O` [Example 4, (R)-2-(1-amino-3-methyl-1-oxobutan-2-ylamino)-4-(3,5-dimethylphenylamino)-6-ethoxypyrimidine-5-carboxamide]: 100 to 1000 nM.

With `CC(C)C[C@@H](Nc1nc(Nc2ccc(-c3ccccn3)cc2)c(C(N)=O)c(=O)[nH]1)C(N)=O` [Example 113, (R)-2-(1-amino-4-methyl-1-oxopentan-2-ylamino)-6-oxo-4-(4-(pyridin-2-yl)phenylamino)-1,6-dihydropyrimidine-5-carboxamide], the half-inhibitory concentration (IC50) in assay [3] lay within 1 to 10 nM. The same measure, in the same setting: the same measure for `CC(C)C[C@@H](Nc1nc(Nc2cccc(-c3ncccc3F)c2)c(C(N)=O)c(=O)[nH]1)C(N)=O` [Example 80, (R)-2-(1-amino-4-methyl-1-oxopentan-2-ylamino)-6-oxo-4-(3-(3-fluoropyridin-2-yl)phenylamino)-1,6-dihydropyrimidine-5-carboxamide]: 1 to 10 nM.

With `CC(C)C[C@@H](Nc1nc(Nc2ccn(C)n2)c(C(N)=O)c(=O)[nH]1)C(N)=O` [Example 117, (R)-2-(1-amino-4-methyl-1-oxopentan-2-ylamino)-4-(1-methyl-1H-pyrazol-3-ylamino)-6-oxo-1,6-dihydropyrimidine-5-carboxamide], the IC50 in assay [3] was in the range of 100 to 1000 nM.

Regarding `CC[C@@H](Nc1nc(Nc2ccc3ncccc3c2)c(C(N)=O)c(OC)n1)C(N)=O` [Example 16, (R)-2-(1-amino-1-oxobutan-2-ylamino)-4-methoxy-6-(quinolin-6-ylamino)pyrimidine-5-carboxamide], the IC50 in assay [3] lay in the range of 10 to 100 nM. Still for that read-out and setting: the value for `CC[C@@H](Nc1nc(Nc2ccc3c(c2)OCCO3)c(C(N)=O)c(=O)[nH]1)C(N)=O` [Example 86, (R)-2-(1-amino-1-oxobutan-2-ylamino)-4-(2,3-dihydrobenzo[b][1,4]dioxin-6-ylamino)-6-oxo-1,6-dihydropyrimidine-5-carboxamide] was 1 to 10 nM.
